# Assay results published in ChEMBL document CHEMBL4334471, “Discovery of 1,8-disubstituted-[1,2,3]triazolo[4,5-c]quinoline derivatives as a new class of Hippo signaling pathway inhibitors” (Bioorg Med Chem Lett, 2019).
# Tests used:
# [1] = molecular target: Mitogen-activated protein kinase 13 (Homo sapiens) (UniProt O15264); experiment: Inhibition of recombinant human full length SAPK4 assessed as residual activity at 10 uM using myelin basic protein as substrate incubated for 40 mins in presence of [gamma33P]ATP by scintillation counting based radiometry assay relative to control
# [2] = molecular target: Wee1-like protein kinase 2 (Homo sapiens) (UniProt P0C1S8); experiment: Inhibition of recombinant full length human WEE1b assessed as residual activity at 10 uM using LSNLYHQGKFLQTFCGSPLYRRR as substrate incubated for 40 mins in presence of [gamma33P]ATP by scintillation counting based radiometry assay relative to control
# Homo sapiens [3] = species on record: Homo sapiens; experiment: Inhibition of recombinant human MER H628Q/R794A mutant (557 to 882 residues) assessed as residual activity at 10 uM using KKLNRTLSFAEPG as substrate incubated for 40 mins in presence of [gamma-33ATP by scintillation counting based radiometry assay relative to control
# [4] = tested on: TGF-beta receptor type-1 (Homo sapiens), P36897 [T204D]; experiment: Inhibition of recombinant human TGFBR1 T204D mutant (200 to end residues) assessed as residual activity at 10 uM using casein as substrate incubated for 40 mins in presence of [gamma33P]ATP by scintillation counting based radiometry assay relative to control
# [5] = molecular target: DNA-dependent protein kinase catalytic subunit (Homo sapiens) (UniProt P78527); experiment: Inhibition of human DNA-PK assessed as residual activity at 10 uM using GST-cMyc-p53 as substrate measured after 40 mins by fluorescence assay relative to control
# [6] = molecular target: Death-associated protein kinase 2 (Homo sapiens) (UniProt Q9UIK4); experiment: Inhibition of recombinant full length human DAPK2 assessed as residual activity at 10 uM Calmodulin as substrate incubated 40 mins in presence of [gamma-33ATP] by scintillation counting based radiometry assay relative to control
# Homo sapiens [7] = species on record: Homo sapiens; experiment: Inhibition of recombinant human BRSK2 S251I mutant (2 to end residues) assessed as residual activity at 10 uM using KKLNRTLSFAEPG substrate incubated for 40 mins in presence of [gamma-33ATP] by scintillation counting based radiometry assay relative to control
# [8] = molecular target: Tyrosine-protein kinase BTK (Homo sapiens) (UniProt Q06187); experiment: Inhibition of recombinant full length human BTK assessed as residual activity at 10 uM using KVEKIGEGTYGVVYK substrate incubated for 40 mins in presence of [gamma-33ATP] by scintillation counting based radiometry assay relative to control
# [9] = molecular target: Ephrin type-B receptor 1 (Homo sapiens) (UniProt P54762); experiment: Inhibition of recombinant human EphB1 (564 to end residues) assessed as residual activity at 10 uM using KVEKIGEGTYGVVYK as substrate at 40 mins in presence of [gamma-33ATP] by scintillation counting based radiometry assay relative to control
# Homo sapiens [10] = species on record: Homo sapiens; experiment: Inhibition of recombinant full-length human ATR/ATRIP M211T mutant assessed as residual activity at 10 uM using GST-cMyc-p53 as substrate measured after 40 mins by fluorescence assay relative to control
# [11] = molecular target: Insulin-like growth factor 1 receptor (Homo sapiens) (UniProt P08069); experiment: Inhibition of human IGF1R activated (959 to end residues) assessed as residual activity at 10 uM using KKKSPGEYVNIEFG as substrate after 40 mins by [gamma-33ATP] radiometric assay relative to control
# [12] = molecular target: NUAK family SNF1-like kinase 2 (Homo sapiens) (UniProt Q9H093); experiment: Inhibition of recombinant human full length NUAK2 assessed as residual activity at 10 uM using KKKVSRSGLYRSPSMPENLNRPR as substrate measured after 40 mins in presence of [gamma33P]ATP by scintillation counting based radiometry assay relative to control
# [13] = tested on: Angiopoietin-1 receptor (Homo sapiens), Q02763 [Q939H,Q940H,R849W]; experiment: Inhibition of recombinant human TIE2 Q939H/Q940H/R849W mutant (771 to end residues) assessed as residual activity at 10 uM using EFPIYDFLPAKKK as substrate incubated for 40 mins in presence of [gamma33P]ATP by scintillation counting based radiometry assay relative to control
# [14] = molecular target: Serine/threonine-protein kinase 17B (Homo sapiens) (UniProt O94768); experiment: Inhibition of recombinant human DRAK2 assessed as residual activity at 10 uM using KKRPQRRYSNVF as substrate at 120 mins in presence of [gamma-33ATP] by scintillation counting based radiometry assay relative to control
# [15] = molecular target: Serine/threonine-protein kinase 33 (Homo sapiens) (UniProt Q9BYT3); experiment: Inhibition of recombinant full-length human STK33 assessed as residual activity at 10 uM using myelin basic protein as substrate incubated for 40 mins in presence of [gamma33P]ATP by scintillation counting based radiometry assay relative to control
# Homo sapiens [16] = species on record: Homo sapiens; experiment: Inhibition of activated recombinant human TEC F514V mutant activated (174 to end residues) assessed as residual activity at 10 uM using EFPIYDFLPAKKK as substrate incubated for 40 mins in presence of [gamma33P]ATP by scintillation counting based radiometry assay relative to control
# [17] = molecular target: Phosphatidylinositol 5-phosphate 4-kinase type-2 alpha (Homo sapiens) (UniProt P48426); experiment: Inhibition of recombinant full-length human PIP4K2alpha assessed as residual activity at 10 uM using phosphatidylinositol 5-phosphate as substrate by HTRF assay relative to control
# [18] = molecular target: Mitogen-activated protein kinase kinase kinase 20 (Homo sapiens) (UniProt Q9NYL2); experiment: Inhibition of recombinant full-length human ZAK assessed as residual activity at 10 uM using MBP as substrate incubated for 40 mins in presence of [gamma33P]ATP by scintillation counting based radiometry assay relative to control
# [19] = tested on: Serine/threonine-protein kinase B-raf (Homo sapiens), P15056 [V600E]; experiment: Inhibition of recombinant full length human B-Raf V599E mutant (416 to end residues) assessed as residual activity at 10 uM using myelin basic protein as substrate incubated for 40 mins in presence of [gamma-33ATP] by scintillation counting based radiometry assay relative to control
# [20] = molecular target: Rhodopsin kinase GRK7 (Homo sapiens) (UniProt Q8WTQ7); experiment: Inhibition of recombinant full length human GRK7 assessed as residual activity at 10 uM using casein as substrate at 40 mins in presence of [gamma-33ATP] by scintillation counting based radiometry assay relative to control
# [21] = tested on: Proto-oncogene tyrosine-protein kinase receptor Ret (Homo sapiens), P07949 [V804L]; experiment: Inhibition of recombinant human Ret V804L mutant (658 to end residues) assessed as residual activity at 10 uM using KKKSPGEYVNIEFG as substrate incubated for 40 mins in presence of [gamma33P]ATP by scintillation counting based radiometry assay relative to control
# [22] = molecular target: Hepatocyte growth factor receptor (Homo sapiens) (UniProt P08581); experiment: Inhibition of recombinant human MET A1209G/V1290L mutant (974 to end residues) assessed as residual activity at 10 uM using KKKGQEEEYVFIE as substrate incubated for 40 mins in presence of [gamma-33ATP by scintillation counting based radiometry assay relative to control
# Mitogen-activated protein kinase kinase kinase 20 (Homo sapiens), sequence (Q9NYL2 2-800 limits assumed): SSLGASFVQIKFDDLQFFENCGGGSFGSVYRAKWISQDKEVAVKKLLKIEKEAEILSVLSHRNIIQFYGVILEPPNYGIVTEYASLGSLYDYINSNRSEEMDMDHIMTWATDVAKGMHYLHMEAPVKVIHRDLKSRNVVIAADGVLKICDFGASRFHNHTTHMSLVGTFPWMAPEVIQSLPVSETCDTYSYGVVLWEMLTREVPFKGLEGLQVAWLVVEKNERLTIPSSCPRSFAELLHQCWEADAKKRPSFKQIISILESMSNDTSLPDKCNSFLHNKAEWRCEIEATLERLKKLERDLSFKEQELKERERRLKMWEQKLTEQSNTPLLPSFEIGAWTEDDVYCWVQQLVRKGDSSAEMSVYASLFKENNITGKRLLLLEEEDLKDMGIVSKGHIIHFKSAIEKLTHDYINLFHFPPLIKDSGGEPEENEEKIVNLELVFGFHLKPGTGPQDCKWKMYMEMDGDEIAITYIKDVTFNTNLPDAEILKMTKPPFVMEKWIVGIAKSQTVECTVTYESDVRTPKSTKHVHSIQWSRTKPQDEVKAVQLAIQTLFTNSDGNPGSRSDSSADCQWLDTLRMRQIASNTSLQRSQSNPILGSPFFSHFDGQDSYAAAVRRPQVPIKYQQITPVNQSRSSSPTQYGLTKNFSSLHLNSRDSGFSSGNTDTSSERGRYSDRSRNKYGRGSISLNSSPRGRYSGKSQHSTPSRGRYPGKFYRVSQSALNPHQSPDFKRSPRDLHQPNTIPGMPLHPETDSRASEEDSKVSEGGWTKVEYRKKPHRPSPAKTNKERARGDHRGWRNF
# Proto-oncogene tyrosine-protein kinase receptor Ret (Homo sapiens), P07949 [V804L], sequence (P07949 whole entry V804L): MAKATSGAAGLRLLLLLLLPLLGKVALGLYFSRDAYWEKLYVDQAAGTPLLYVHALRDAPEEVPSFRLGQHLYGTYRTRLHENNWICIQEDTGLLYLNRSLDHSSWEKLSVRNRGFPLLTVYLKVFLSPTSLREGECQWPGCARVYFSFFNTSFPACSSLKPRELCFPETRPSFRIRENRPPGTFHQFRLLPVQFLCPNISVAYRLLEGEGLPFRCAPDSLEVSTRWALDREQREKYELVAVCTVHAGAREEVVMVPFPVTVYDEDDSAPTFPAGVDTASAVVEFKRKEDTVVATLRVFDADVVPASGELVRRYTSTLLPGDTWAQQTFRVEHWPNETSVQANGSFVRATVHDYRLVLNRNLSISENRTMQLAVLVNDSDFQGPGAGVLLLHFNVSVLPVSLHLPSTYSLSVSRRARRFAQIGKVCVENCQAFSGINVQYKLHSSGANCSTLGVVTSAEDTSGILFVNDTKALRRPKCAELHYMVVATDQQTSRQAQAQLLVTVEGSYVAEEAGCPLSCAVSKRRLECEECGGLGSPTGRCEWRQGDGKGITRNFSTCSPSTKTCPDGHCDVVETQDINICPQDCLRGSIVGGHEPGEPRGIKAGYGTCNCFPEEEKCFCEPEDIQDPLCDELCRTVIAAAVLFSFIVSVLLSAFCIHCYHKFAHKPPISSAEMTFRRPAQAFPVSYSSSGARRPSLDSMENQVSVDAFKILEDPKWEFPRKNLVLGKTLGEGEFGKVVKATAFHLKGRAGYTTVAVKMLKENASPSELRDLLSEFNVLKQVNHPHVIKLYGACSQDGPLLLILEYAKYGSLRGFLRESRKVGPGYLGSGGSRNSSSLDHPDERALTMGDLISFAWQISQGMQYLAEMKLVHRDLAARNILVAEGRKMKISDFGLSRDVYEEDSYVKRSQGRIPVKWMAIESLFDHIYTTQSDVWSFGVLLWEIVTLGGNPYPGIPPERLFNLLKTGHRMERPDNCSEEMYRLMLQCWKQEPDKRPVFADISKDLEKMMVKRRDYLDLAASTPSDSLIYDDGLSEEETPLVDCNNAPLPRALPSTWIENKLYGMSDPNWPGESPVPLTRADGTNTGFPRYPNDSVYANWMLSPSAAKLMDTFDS
# TGF-beta receptor type-1 (Homo sapiens), P36897 [T204D], sequence (P36897 whole entry T204D): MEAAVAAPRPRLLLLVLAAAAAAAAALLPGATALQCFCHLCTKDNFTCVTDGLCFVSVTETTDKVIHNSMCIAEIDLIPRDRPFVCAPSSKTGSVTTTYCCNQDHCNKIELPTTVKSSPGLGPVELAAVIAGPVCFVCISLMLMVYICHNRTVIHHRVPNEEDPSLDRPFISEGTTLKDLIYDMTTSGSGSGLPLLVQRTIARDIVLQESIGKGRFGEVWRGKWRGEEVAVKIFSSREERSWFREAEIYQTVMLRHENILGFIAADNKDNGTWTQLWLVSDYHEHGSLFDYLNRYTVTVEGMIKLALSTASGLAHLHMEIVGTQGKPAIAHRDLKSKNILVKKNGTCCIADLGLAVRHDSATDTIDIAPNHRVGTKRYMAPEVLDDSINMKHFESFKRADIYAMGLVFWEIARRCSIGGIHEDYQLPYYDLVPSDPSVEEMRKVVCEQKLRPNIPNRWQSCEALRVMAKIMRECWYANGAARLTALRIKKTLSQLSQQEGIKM
# NUAK family SNF1-like kinase 2 (Homo sapiens), sequence (Q9H093 whole entry): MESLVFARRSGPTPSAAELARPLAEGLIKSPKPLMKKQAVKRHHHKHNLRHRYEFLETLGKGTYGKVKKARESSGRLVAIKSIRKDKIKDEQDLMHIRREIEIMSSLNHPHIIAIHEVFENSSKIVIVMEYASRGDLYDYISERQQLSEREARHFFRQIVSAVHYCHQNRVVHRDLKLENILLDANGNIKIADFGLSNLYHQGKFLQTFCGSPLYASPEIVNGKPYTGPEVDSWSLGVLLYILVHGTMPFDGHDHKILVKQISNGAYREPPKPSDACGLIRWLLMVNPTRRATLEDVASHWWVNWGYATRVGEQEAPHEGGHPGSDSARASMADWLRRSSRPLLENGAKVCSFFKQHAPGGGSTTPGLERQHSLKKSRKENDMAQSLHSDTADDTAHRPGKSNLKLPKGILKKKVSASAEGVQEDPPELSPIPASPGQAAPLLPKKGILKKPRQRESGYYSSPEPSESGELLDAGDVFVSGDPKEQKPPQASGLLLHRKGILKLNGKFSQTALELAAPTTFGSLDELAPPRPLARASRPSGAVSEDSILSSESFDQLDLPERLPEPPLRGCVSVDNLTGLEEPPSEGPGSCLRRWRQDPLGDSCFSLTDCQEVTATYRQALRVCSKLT
# Rhodopsin kinase GRK7 (Homo sapiens), sequence (Q8WTQ7 whole entry): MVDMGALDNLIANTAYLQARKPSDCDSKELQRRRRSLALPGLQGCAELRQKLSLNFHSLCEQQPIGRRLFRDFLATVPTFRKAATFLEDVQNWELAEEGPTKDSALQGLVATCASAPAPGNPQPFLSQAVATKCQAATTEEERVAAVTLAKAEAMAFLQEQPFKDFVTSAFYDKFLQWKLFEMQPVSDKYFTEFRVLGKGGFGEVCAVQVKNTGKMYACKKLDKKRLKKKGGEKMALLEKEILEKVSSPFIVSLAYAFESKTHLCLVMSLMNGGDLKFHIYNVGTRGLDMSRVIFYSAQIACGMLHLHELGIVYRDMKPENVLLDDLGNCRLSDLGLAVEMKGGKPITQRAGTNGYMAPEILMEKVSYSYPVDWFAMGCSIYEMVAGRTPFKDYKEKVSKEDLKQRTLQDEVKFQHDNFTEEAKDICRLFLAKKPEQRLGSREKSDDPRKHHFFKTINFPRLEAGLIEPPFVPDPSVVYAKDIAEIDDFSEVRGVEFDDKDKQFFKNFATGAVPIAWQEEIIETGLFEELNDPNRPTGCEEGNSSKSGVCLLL
# Death-associated protein kinase 2 (Homo sapiens), sequence (Q9UIK4 whole entry, looked up): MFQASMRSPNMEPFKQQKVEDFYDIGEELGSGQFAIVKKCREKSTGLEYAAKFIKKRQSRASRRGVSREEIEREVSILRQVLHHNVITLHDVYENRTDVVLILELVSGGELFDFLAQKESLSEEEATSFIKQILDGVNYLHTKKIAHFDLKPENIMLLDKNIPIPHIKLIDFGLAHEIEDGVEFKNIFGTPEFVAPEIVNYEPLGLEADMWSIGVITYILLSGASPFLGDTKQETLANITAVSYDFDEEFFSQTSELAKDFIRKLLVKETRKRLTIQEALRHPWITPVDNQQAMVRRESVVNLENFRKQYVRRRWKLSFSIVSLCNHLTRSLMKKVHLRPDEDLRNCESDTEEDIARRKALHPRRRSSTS
# Serine/threonine-protein kinase B-raf (Homo sapiens), P15056 [V600E], sequence (P15056 whole entry V600E): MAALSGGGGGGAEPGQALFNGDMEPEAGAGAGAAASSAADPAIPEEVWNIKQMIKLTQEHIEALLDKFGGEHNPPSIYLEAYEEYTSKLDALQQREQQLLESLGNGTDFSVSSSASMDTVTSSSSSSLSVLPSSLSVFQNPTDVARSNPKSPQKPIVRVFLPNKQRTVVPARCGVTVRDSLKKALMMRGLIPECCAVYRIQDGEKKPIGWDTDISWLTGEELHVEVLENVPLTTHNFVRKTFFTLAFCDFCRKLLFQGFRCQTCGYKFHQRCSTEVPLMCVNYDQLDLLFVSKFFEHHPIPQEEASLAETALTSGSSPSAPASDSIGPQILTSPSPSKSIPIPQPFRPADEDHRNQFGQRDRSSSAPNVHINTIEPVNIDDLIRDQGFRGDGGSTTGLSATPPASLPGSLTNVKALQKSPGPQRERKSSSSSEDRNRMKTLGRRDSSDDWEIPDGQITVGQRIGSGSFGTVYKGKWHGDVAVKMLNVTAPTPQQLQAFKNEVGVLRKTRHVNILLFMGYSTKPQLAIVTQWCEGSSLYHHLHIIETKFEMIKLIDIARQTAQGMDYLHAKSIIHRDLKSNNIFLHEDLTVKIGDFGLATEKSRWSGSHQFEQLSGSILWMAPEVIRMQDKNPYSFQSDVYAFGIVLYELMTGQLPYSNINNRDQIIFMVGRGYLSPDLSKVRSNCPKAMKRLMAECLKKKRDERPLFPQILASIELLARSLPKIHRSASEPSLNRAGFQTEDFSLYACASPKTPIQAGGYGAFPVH
smiles,measurement,setting,value
C[C@@H](c1ccccc1)n1nnc2cnc3ccc(-c4cnc5[nH]ccc5c4)cc3c21,Activity,[1],97%
same,Activity,[2],90%
same,Activity,Homo sapiens [3],56%
same,Activity,[4],97%
same,Activity,[5],4%
same,Activity,[6],89%
same,Activity,Homo sapiens [7],77%
same,Activity,[8],17%
same,Activity,[9],152%
same,Activity,Homo sapiens [10],40%
same,Activity,[11],79%
same,Activity,[12],105%
same,Activity,[13],103%
same,Activity,[14],64%
same,Activity,[15],91%
same,Activity,Homo sapiens [16],35%
same,Activity,[17],95%
same,Activity,[18],8%
same,Activity,[19],64%
same,Activity,[20],90%
same,Activity,[21],90%
same,Activity,[22],62%
